The values below come from ChEMBL document CHEMBL1201862, “PubChem BioAssay data set” (2004).

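These data come from cells grown in 96-well plates and exposed to compound for 48 hours at five concentrations. GI50 is the concentration that inhibits growth by half.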 Active and inactive are the calls of the source. No stated cut-off is given here; in the data, active = GI50 up to about 1.1 µM and inactive = higher.

Some test systems named below: NCI/ADR-RES; U-251; NCI-H460; RPMI-8226; MCF7; NCI-H226; T47D; SN12C; LOX IMVI; SF-295; PC-3; SK-MEL-5; DU-145; A549; HCC 2998; UO-31; SF-268; SW-620; HL-60; IGROV-1.
Assay in all cases: NCI anticancer screen, dose series, 48 h

As to `C[C@@H]1C[C@@H](O)[C@]2(O)O[C@@H]3C[C@@]4(C=O)[C@@H](CC[C@@H]5[C@@H]4CC[C@]4(C)[C@@H](C6=CC(=O)OC6)CC[C@]54O)C[C@H]3O[C@@H]2O1` [CALACTIN], the GI50 was 0.0306 µM (active) with NCI/ADR-RES; 0.019 µM (active) in the assay on U-251; 0.00464 µM (active) in the assay with NCI-H460; 0.0281 µM (active) with RPMI-8226; 0.0335 µM (active) in the assay with MCF7; 0.0243 µM (active) in the assay on NCI-H226. For the same molecule, the GI50 in the assay on T47D was 0.0469 µM (active); in the assay on SN12C it was 0.00301 µM (active); in the assay with LOX IMVI, 0.0148 µM (active); in the assay on SF-295, 0.0133 µM (active); in the assay on PC-3 it was 0.0403 µM (active); in the assay on SK-MEL-5, 0.0101 µM (active). For the same molecule, the GI50 is 0.0171 µM (active) in the assay on DU-145; 0.00439 µM (active) in the assay on A549; 0.161 µM (active) with HCC 2998; 0.0171 µM (active) with UO-31; 0.00231 µM (active) in the assay on SF-268; 0.0133 µM (active) in the assay on SW-620. For the same molecule, the GI50 with HL-60 is 0.0129 µM (active); with IGROV-1 it was 0.00962 µM (active).

On to `O=C1NC(=O)C(Cc2ccccc2)(c2cccnc2)N1` (stereo not given), for which the GI50 in the assay on NCI/ADR-RES, in the assay on U-251, in the assay with NCI-H460, with RPMI-8226, in the assay on MCF7 and in the assay on NCI-H226 was > 100 µM (inactive) each time. Moreover, the GI50 in the assay on T47D, in the assay on SN12C, in the assay with LOX IMVI, in the assay with SF-295, with PC-3 and in the assay on SK-MEL-5 was > 100 µM (inactive) each time. Also, the GI50 in the assay with DU-145, in the assay on A549, in the assay on HCC 2998, with UO-31, in the assay on SF-268 and with SW-620 was > 100 µM (inactive) each time. In addition, the GI50 in the assay on HL-60 and in the assay on IGROV-1 was > 100 µM (inactive) each time.

For the molecule `COC[C@@H](C[C@H]1O[C@@](O)([C@H](O)[C@@H]2C[C@H](OC)[C@@H](O)CC/C=C(C)/C=C/[C@@H](O[C@@H]3O[C@@H](C)[C@H](OC)[C@@H](O)[C@@H]3O)[C@H](C)/C=C(C)/C=C(C)/C=C(\C)C(=O)O2)[C@H](C)[C@@H](O)[C@H]1C)O[C@H]1C[C@](C)(O)[C@@H](O[C@H]2C[C@@H](OC)[C@H](O)[C@@H](C)O2)C(C)O1` (stereo not given in full), the GI50 with NCI/ADR-RES is > 100 µM (inactive); in the assay with U-251, 0.0628 µM (active); with NCI-H460, > 61 µM (inactive); with RPMI-8226, 86.5 µM (inactive); in the assay with MCF7, 0.0785 µM (active); in the assay with NCI-H226, 0.91 µM (active). Further, the GI50 with T47D was 0.188 µM (active); in the assay on SN12C, > 100 µM (inactive); with LOX IMVI it was 46.5 µM (inactive); in the assay with SF-295, 0.857 µM (active); in the assay with PC-3, 0.0447 µM (active); in the assay on SK-MEL-5, 0.182 µM (active). For the same molecule, the GI50 in the assay on DU-145 is > 61.8 µM (inactive); with A549 it was 1.32 µM (inactive); in the assay with HCC 2998, > 80.2 µM (inactive); with UO-31, > 100 µM (inactive); in the assay with SF-268 it was > 40.8 µM (inactive); in the assay with SW-620 it was > 85.7 µM (inactive). Besides, the figures for the GI50 in the assay with HL-60 and with IGROV-1 were 0.869 µM (active) and > 100 µM (inactive), respectively.

In the case of `COC(=O)/C=C1/CCC(C)(C(=O)NS(=O)(=O)c2ccc(C)cc2)C1(C)C` (stereo not given), the GI50 in the assay on NCI/ADR-RES, in the assay with U-251, in the assay on NCI-H460, in the assay on RPMI-8226, with MCF7 and with NCI-H226 was > 100 µM (inactive) throughout. The GI50 with T47D, with SN12C, in the assay with LOX IMVI, with SF-295, with PC-3 and in the assay with SK-MEL-5 was > 100 µM (inactive) each time. For the same molecule, the GI50 in the assay on DU-145, in the assay with A549, with HCC 2998, in the assay on UO-31, in the assay with SF-268 and with SW-620 was > 100 µM (inactive) each time. In addition, the GI50 in the assay with HL-60 and in the assay on IGROV-1 was > 100 µM (inactive) each time.

For `CN(C)CCNc1ccc2c(=O)n(CCN(C)C)c(=O)n3c4ccc(N)cc4c(=O)c1c23`, the GI50 in the assay on NCI/ADR-RES was 0.259 µM (active); in the assay on U-251, 0.0264 µM (active); in the assay with NCI-H460 it was < 0.01 µM (active); in the assay on RPMI-8226 it was 0.04 µM (active); with MCF7, < 0.012 µM (active); in the assay on NCI-H226, < 0.0215 µM (active). The GI50 with T47D is 0.207 µM (active); with SN12C it was < 0.01 µM (active); in the assay on LOX IMVI it was 0.0775 µM (active); with SF-295, 0.0671 µM (active); with PC-3, 0.0608 µM (active); in the assay with SK-MEL-5 it was 0.194 µM (active). Further, the GI50 in the assay on DU-145 is 0.0665 µM (active); in the assay on A549, < 0.01 µM (active); in the assay on HCC 2998, 0.0392 µM (active); in the assay on UO-31, 0.0382 µM (active); in the assay with SF-268 it was < 0.0272 µM (active); in the assay on SW-620, < 0.01 µM (active). Also, the values for the GI50 in the assay on HL-60 and with IGROV-1 were 0.0434 µM (active) and < 0.0124 µM (active), respectively.

Take `C=C1CCOC2(C(O)C(C)(O)CO)NC(=O)C1(O)NC2=O` (stereo not given): the GI50 in the assay with NCI/ADR-RES, in the assay on U-251, in the assay with NCI-H460, in the assay with RPMI-8226, in the assay on MCF7 and in the assay with NCI-H226 was > 100 µM (inactive) throughout. The GI50 in the assay on T47D, in the assay on SN12C, in the assay with LOX IMVI, in the assay on SF-295, with PC-3 and in the assay with SK-MEL-5 was > 100 µM (inactive) each time. Also, the GI50 in the assay with DU-145, in the assay with A549, in the assay with HCC 2998, with UO-31, with SF-268 and with SW-620 was > 100 µM (inactive) each time. Further, the GI50 in the assay on HL-60 and in the assay with IGROV-1 was > 100 µM (inactive) throughout.

For `OC1CCCCCCCCCCC1[S+]1CCCC1.O[B-](F)(F)F` (stereo not given), the GI50 in the assay with NCI/ADR-RES was > 100 µM (inactive); with U-251, > 100 µM (inactive); with NCI-H460 it was > 100 µM (inactive); in the assay with RPMI-8226, 36.1 µM (inactive); with MCF7, > 100 µM (inactive); in the assay on NCI-H226, 50.9 µM (inactive). For the same molecule, the GI50 is > 100 µM (inactive) in the assay on T47D; > 100 µM (inactive) in the assay on SN12C; > 100 µM (inactive) in the assay with LOX IMVI; > 100 µM (inactive) in the assay on SF-295; 56.8 µM (inactive) with PC-3; 27.7 µM (inactive) with SK-MEL-5. Moreover, the GI50 with DU-145 was > 100 µM (inactive); with A549, 96.6 µM (inactive); in the assay on HCC 2998, > 100 µM (inactive); with UO-31, > 100 µM (inactive); with SF-268, > 100 µM (inactive); in the assay with SW-620, > 100 µM (inactive). Further, the GI50 in the assay with HL-60 and with IGROV-1 was > 100 µM (inactive) each time.

On to `CC1=C(CO)C2=C(C)C3(CC3)[C@@](C)(O)C(=O)C2=C1` [IROFULVEN], for which the GI50 is 0.241 µM (active) in the assay on NCI/ADR-RES; 0.286 µM (active) in the assay with U-251; 0.0467 µM (active) in the assay with NCI-H460; 34.1 µM (inactive) with RPMI-8226; 0.242 µM (active) in the assay on MCF7; 0.191 µM (active) with NCI-H226. Also, the GI50 in the assay on T47D is 0.218 µM (active); in the assay on SN12C it was 0.409 µM (active); with LOX IMVI, 0.582 µM (active); with SF-295, 0.302 µM (active); in the assay with PC-3, 0.267 µM (active); in the assay on SK-MEL-5 it was 0.161 µM (active). The GI50 with DU-145 is 0.0929 µM (active); in the assay with A549 it was 0.113 µM (active); in the assay on HCC 2998, 0.153 µM (active); in the assay on UO-31 it was 0.19 µM (active); with SF-268 it was 0.234 µM (active); in the assay on SW-620, 0.614 µM (active). In addition, the GI50 in the assay on HL-60 is 0.237 µM (active); in the assay with IGROV-1, 0.149 µM (active).

For `CCN(CC)CCNc1ccc(/N=N/c2ccc(S(N)(=O)=O)cc2)c2ccccc12`, the GI50 with NCI/ADR-RES is 24.2 µM (inactive); in the assay on U-251, 4.61 µM (inactive); with NCI-H460, 7.4 µM (inactive); in the assay with RPMI-8226 it was 3.37 µM (inactive); in the assay with MCF7, 6.73 µM (inactive); in the assay on NCI-H226, 23.6 µM (inactive). The GI50 in the assay on T47D was 2.55 µM (inactive); in the assay with SN12C it was 8.89 µM (inactive); in the assay with LOX IMVI it was 2.65 µM (inactive); in the assay with SF-295 it was 4.3 µM (inactive); with PC-3 it was 6.93 µM (inactive); in the assay on SK-MEL-5 it was 5.06 µM (inactive). The GI50 in the assay with DU-145 is 12 µM (inactive); with A549, 4.99 µM (inactive); in the assay on HCC 2998, 8.75 µM (inactive); in the assay with UO-31 it was 5.56 µM (inactive); in the assay with SF-268 it was 10.1 µM (inactive); in the assay with SW-620 it was 3.3 µM (inactive). For the same molecule, the GI50 with HL-60 was 14.5 µM (inactive); in the assay on IGROV-1, 13.1 µM (inactive).
